Assay results published in the supplement of paper PMC7661543.
± gives the standard deviation of the averaged measurements.

Assays:
Assay in all cases: relative cell number vs DMSO control (72 h) (% of DMSO); higher = less growth inhibition (more cells)
Conditions in all cases: sgRNA knockout: sgNT
[1] = test system: HCC-38
Description: (§1)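 QMAP-Seq: a pool of 5 breast cancer cell lines (ZR-75-1, SKBR3, HCC-38, MDA-MB-231, BT-20), each carrying 12 doxycycline-inducible Cas9 sgRNA perturbations (11 knockouts plus non-targeting sgNT), was treated with compounds for 72 h at four 10-fold doses (10 nM-10 uM or 1 nM-1 uM range). Barcodes were amplified and sequenced, and cell number was interpolated from 293T spike-in standard curves. The result is expressed as % of the median of DMSO wells. Two biological replicates.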

[2] = test system: MDA-MB-231
Description: as §1

[3] = test system: ZR-75-1
Description: as §1

[4] = test system: SKBR3
Description: as §1

[5] = test system: BT-20
Description: as §1

SMILES | relative cell number ([1]; 10 nM) | relative cell number ([1]; 100 nM) | relative cell number ([1]; 1000 nM) | relative cell number ([1]; 10000 nM) | relative cell number ([2]; 10 nM) | relative cell number ([2]; 100 nM) | relative cell number ([2]; 1000 nM) | relative cell number ([2]; 10000 nM) | relative cell number ([3]; 10 nM) | relative cell number ([3]; 100 nM) | relative cell number ([3]; 1000 nM) | relative cell number ([3]; 10000 nM) | relative cell number ([4]; 10 nM) | relative cell number ([4]; 100 nM) | relative cell number ([4]; 1000 nM) | relative cell number ([4]; 10000 nM) | relative cell number ([5]; 10 nM) | relative cell number ([5]; 100 nM) | relative cell number ([5]; 1000 nM) | relative cell number ([5]; 10000 nM)
COc1cccc2cc(-c3nc([C@H]4CC[C@H](C(=O)O)CC4)n4ncnc(N)c34)[nH]c12 [OSI027] | 108 ± 20 | 107 ± 29 | 84.2 ± 1.9 | 31.2 ± 0.23 | 97.4 ± 8.9 | 128 ± 27 | 83.4 ± 29 | 58.9 ± 11 | 81.1 ± 21 | 94.9 ± 17 | 63.4 ± 24 | 25.4 ± 2 | 87.6 ± 25 | 116 ± 31 | 69.9 ± 14 | 27.8 ± 6.2 | 85.8 ± 7.3 | 113 ± 1.8 | 83.39 ± 0.24 | 52.5 ± 14
O=C(c1cc(Cc2n[nH]c(=O)c3ccccc23)ccc1F)N1CCN(C(=O)C2CC2)CC1 [Olaparib] | 93.4 ± 4.8 | 102 ± 2.2 | 88.6 ± 1.6 | 62.5 ± 0.89 | 87.3 ± 12 | 83.4 ± 1.6 | 93.9 ± 22 | 93.2 ± 31 | 78.3 ± 13 | 89.3 ± 28 | 64.1 ± 3.7 | 91.3 ± 17 | 87.7 ± 1.6 | 111 ± 9.3 | 85.4 ± 11 | 48.7 ± 9.5 | 103 ± 6 | 85.9 ± 12 | 73.2 ± 6.7 | 94 ± 7.7
Cc1ncc([N+](=O)[O-])n1CC(O)CCl (stereo not given) [Ornidazole] | 84.2 ± 8.7 | 88.1 ± 7.5 | 114 ± 19 | 97.7 ± 13 | 103.6 ± 0.42 | 108 ± 7.5 | 74.3 ± 12 | 138 ± 14 | 95 ± 18 | 76.4 ± 24 | 121 ± 71 | 84.3 ± 25 | 70.1 ± 3.7 | 102 ± 12 | 91.3 ± 26 | 104 ± 29 | 103 ± 7.7 | 81.8 ± 1.3 | 96.5 ± 6.5 | 104 ± 17
C=CCc1cccc(/C=N/NC(=O)CN2CCN(Cc3ccccc3)CC2)c1O [PAC1] | 104 ± 7.8 | 103 ± 7 | 90 ± 11 | 33.9 ± 2.5 | 104 ± 32 | 134.14 ± 0.028 | 109 ± 32 | 31.7 ± 4.5 | 99.5 ± 9.9 | 46.5 ± 24 | 89.6 ± 8.7 | 12.5 ± 5.5 | 68 ± 7 | 88.5 ± 14 | 68 ± 27 | 32.5 ± 11 | 92 ± 13 | 84.1 ± 14 | 74.6 ± 4.9 | 45.7 ± 18
Oc1cccc(-c2nc(N3CCOCC3)c3oc4ncccc4c3n2)c1 [PI103] | 118 ± 1.5 | 111 ± 1.1 | 85.3 ± 4.5 | 31.4 ± 2.4 | 143 ± 15 | 126 ± 41 | 118 ± 15 | 37.3 ± 11 | 121 ± 13 | 129 ± 16 | 58 ± 21 | 18.9 ± 2.2 | 145 ± 47 | 134 ± 2.6 | 62.6 ± 31 | 33.1 ± 2.4 | 120 ± 44 | 124 ± 37 | 68.7 ± 11 | 49.7 ± 11
CC(=O)Nc1nc(C)c(-c2ccc(Cl)c(S(=O)(=O)NCCO)c2)s1 [PIK93] | 115 ± 21 | 118 ± 22 | 80.4 ± 7.5 | 62.7 ± 7.3 | 84.5 ± 40 | 98.2 ± 31 | 88.6 ± 11 | 37.5 ± 1.5 | 128 ± 19 | 99.2 ± 33 | 61.1 ± 14 | 63.8 ± 24 | 112 ± 59 | 66.5 ± 30 | 94.4 ± 41 | 51.9 ± 25 | 106 ± 8.5 | 104 ± 2.3 | 98.71 ± 0.17 | 74 ± 3.9
CCCS(=O)(=O)Nc1ccc(F)c(C(=O)c2c[nH]c3ncc(Cl)cc23)c1F [PLX4720] | 103 ± 13 | 109 ± 15 | 110 ± 17 | 98.3 ± 14 | 129.8 ± 0.69 | 136 ± 62 | 70.5 ± 9.8 | 98 ± 3.6 | 138 ± 42 | 96.7 ± 15 | 123 ± 22 | 173 ± 42 | 109 ± 24 | 105 ± 22 | 93.3 ± 14 | 94.8 ± 13 | 104 ± 12 | 75.4 ± 11 | 98.4 ± 7.7 | 121 ± 32
CCC(C)SSc1ncc[nH]1 (stereo not given) [PX12] | 113 ± 8.1 | 101 ± 15 | 93.6 ± 8.6 | 84.9 ± 8.4 | 104 ± 30 | 128 ± 20 | 99.5 ± 25 | 54.6 ± 0.63 | 116 ± 19 | 102 ± 48 | 69.5 ± 9.5 | 54.7 ± 25 | 95.4 ± 14 | 95.5 ± 65 | 88.8 ± 31 | 57.7 ± 24 | 116 ± 7.8 | 132 ± 1.4 | 100 ± 4.2 | 99.6 ± 31
CCOC(=O)c1ccc(N2NC(=O)C(=Cc3ccc([N+](=O)[O-])o3)C2=O)cc1 [PYR41] | 85.8 ± 4.7 | 89.9 ± 13 | 101.7 ± 0.8 | 84.8 ± 5.1 | 133 ± 62 | 106 ± 11 | 87.6 ± 62 | 111 ± 6.8 | 125 ± 29 | 72.9 ± 28 | 100 ± 1.6 | 97.4 ± 40 | 106 ± 8.4 | 83.5 ± 17 | 98.3 ± 18 | 64.5 ± 46 | 93.7 ± 24 | 101 ± 13 | 103 ± 17 | 102.7 ± 0.59
CC(=O)O[C@H]1C(=O)[C@@]2(C)[C@H]([C@H](OC(=O)c3ccccc3)[C@]3(O)C[C@H](OC(=O)[C@H](O)[C@@H](NC(=O)c4ccccc4)c4ccccc4)C(C)=C1C3(C)C)[C@]1(OC(C)=O)CO[C@@H]1C[C@@H]2O [Paclitaxel] | 31.4 ± 5.5 | 14.4 ± 5.1 | 18 ± 2.9 | 25.4 ± 3.6 | 28.8 ± 15 | 15.6 ± 2.2 | 21.4 ± 7.8 | 29.9 ± 10 | 28.3 ± 2 | 18.6 ± 18 | 21.6 ± 3.9 | 43.8 ± 17 | 10.2 ± 2.9 | 6.23 ± 1.4 | 11.1 ± 1.4 | 16.4 ± 9.7 | 57.9 ± 10 | 18.7 ± 15 | 25.7 ± 9.2 | 47.3 ± 15
CC(=O)c1c(C)c2cnc(Nc3ccc(N4CCNCC4)cn3)nc2n(C2CCCC2)c1=O [Palbociclib] | 74.3 ± 13 | 37.4 ± 10 | 44.4 ± 2 | 42.2 ± 0.9 | 97.3 ± 57 | 30.6 ± 16 | 22.5 ± 2.1 | 22.1 ± 6 | 66.5 ± 20 | 36.6 ± 2.5 | 30 ± 3.5 | 29.9 ± 3 | 90.3 ± 0.5 | 52.1 ± 5.9 | 51.3 ± 4.3 | 43.8 ± 16 | 87.4 ± 11 | 41.8 ± 13 | 45.8 ± 1.1 | 53.889 ± 0.041
C=C1C(=O)O[C@H]2[C@H]1CC/C(C)=C/CC[C@@]1(C)O[C@@H]21 [Parthenolide] | 114 ± 6.1 | 92.6 ± 2 | 98.6 ± 16 | 113 ± 13 | 130 ± 77 | 123 ± 43 | 126 ± 11 | 124.5 ± 0.77 | 94.9 ± 35 | 128 ± 21 | 71.5 ± 53 | 122 ± 3.6 | 98.3 ± 24 | 122 ± 28 | 96.6 ± 16 | 98.9 ± 4.2 | 108 ± 14 | 101 ± 3.3 | 93.2 ± 14 | 96.5 ± 20
